Laboratory results from US7932270B2 (Cytokinetics, Inc., priority 2006, dated 2011).

biological target: T1, chicken gizzard smooth muscle myosin subfragment-1 chemically crosslinked to cardiac or skeletal actin (Gallus gallus, UniProt P10587); experiment: Smooth muscle myosin ATPase dose response assay (pyruvate kinase/horseradish peroxidase/pyruvate oxidase-coupled, amplex red fluorescence); type: biochemical; details: read-out: IC50 Arithmetic Mean
T1 construct: chicken gizzard smooth muscle myosin subfragment-1; from tissue; host or cells: chicken gizzard
T1 sequence (P02607 2-151): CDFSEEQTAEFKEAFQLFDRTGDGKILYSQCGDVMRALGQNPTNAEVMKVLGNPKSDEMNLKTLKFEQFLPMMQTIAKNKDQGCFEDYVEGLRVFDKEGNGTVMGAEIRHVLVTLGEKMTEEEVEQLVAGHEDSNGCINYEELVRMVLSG
T1 sequence (P10587 84-789): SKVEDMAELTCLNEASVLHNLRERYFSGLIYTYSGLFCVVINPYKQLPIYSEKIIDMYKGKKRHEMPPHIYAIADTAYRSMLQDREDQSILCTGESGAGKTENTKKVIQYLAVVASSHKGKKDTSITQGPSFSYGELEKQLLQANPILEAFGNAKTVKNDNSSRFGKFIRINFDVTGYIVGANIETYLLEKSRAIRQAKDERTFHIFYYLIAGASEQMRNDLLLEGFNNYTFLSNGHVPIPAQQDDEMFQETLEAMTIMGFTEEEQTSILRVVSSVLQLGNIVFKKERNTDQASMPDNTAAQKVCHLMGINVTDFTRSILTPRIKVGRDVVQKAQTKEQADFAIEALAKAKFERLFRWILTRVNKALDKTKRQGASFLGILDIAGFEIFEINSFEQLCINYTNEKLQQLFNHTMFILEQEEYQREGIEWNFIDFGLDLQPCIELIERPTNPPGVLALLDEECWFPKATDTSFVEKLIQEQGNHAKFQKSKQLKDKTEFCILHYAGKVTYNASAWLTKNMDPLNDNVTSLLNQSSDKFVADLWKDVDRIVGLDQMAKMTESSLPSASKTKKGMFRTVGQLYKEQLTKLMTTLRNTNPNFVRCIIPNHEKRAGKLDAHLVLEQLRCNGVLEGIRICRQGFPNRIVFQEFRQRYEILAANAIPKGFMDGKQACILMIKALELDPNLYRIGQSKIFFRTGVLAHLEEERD
Outline: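 Inhibition is measured in a peroxidase/pyruvate oxidase-linked format at pH 7.00 and 22° C, 0.15 mM ATP final. Myosin input is titrated to a target turnover since active fraction differs between preparations.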

IC50	SMILES
56 nM	N#Cc1ccccc1-c1ccc(C(=O)NCc2ccncc2CN)c(NCCc2cccc(F)c2)n1 [N-{[3-(aminomethyl)(4-pyridyl)]methyl}(6-(2-cyanophenyl)-2-{[2-(3-fluorophenyl)ethyl]amino}(3-pyridyl))carboxamide]
149 nM	O=C(NCc1cccnc1)c1ccc(-c2ccccc2)nc1NCCc1cccs1 [{6-phenyl-2-[(2-(2-thienyl)ethyl)amino](3-pyridyl)}-N-(3-pyridylmethyl)carboxamide]
8880 nM	N#Cc1ccccc1-c1ccc(C(=O)NC[C@H]2CN(C(=O)CN)CCN2)c(NCCc2cccc(F)c2)n1 [N-{[(2S)-4-(2-aminoacetyl)piperazin-2-yl]methyl}(6-(2-cyanophenyl)-2-{[2-(3-fluorophenyl)ethyl]amino}(3-pyridyl))carboxamide]
444 nM	N#Cc1ccccc1-c1ccc(C(=O)NCCNCCN)c(NCCc2cccc(F)c2)n1 [N-{2-[(2-aminoethyl)amino]ethyl}(6-(2-cyanophenyl)-2-{[2-(3-fluorophenyl)ethyl]amino}(3-pyridyl))carboxamide]
463 nM	O=C(NCc1ccccn1)c1ccc(-c2ccccc2)nc1NCCc1ccccn1 [{6-phenyl-2-[(2-(2-pyridyl)ethyl)amino](3-pyridyl)}-N-(2-pyridylmethyl)carboxamide]
14900 nM	COc1cccc(-c2ccc(C(=O)NCc3cccnc3)c(NCCc3ccccn3)n2)c1 [{6-(3-methoxyphenyl)-2-[(2-(2-pyridyl)ethyl)amino](3-pyridyl)}-N-(3-pyridylmethyl)carboxamide]

Second part, the molecule before the results:

SMILES	IC50
N#Cc1ccccc1-c1ccc(C(=O)NCC2CCNC2=O)c(NCCc2cccc(F)c2)n1 (stereo not drawn) [(6-(2-cyanophenyl)-2-{[2-(3-fluorophenyl)ethyl]amino}(3-pyridyl))-N-[(2-oxopyrrolidin-3-yl)methyl]carboxamide]	32 nM
Cn1cc(-c2ccc(C(=O)NC[C@H]3CCC(=O)N3CCCNC(=O)OC(C)(C)C)c(NCCc3cccc(F)c3)n2)cn1 [N-[((2R)-1-{3-[(tert-butoxy)carbonylamino]propyl}-5-oxopyrrolidin-2-yl)methyl](2-{[2-(3-fluorophenyl)ethyl]amino}-6-(1-methylpyrazol-4-yl)(3-pyridyl))carboxamide]	1340 nM
O=C(O)c1ccc(-c2ccc(C(=O)NCc3cccnc3)c(NCCc3ccccn3)n2)cc1 [4-{6-[(2-(2-pyridyl)ethyl)amino]-5-[N-(3-pyridylmethyl)carbamoyl]-2-pyridyl}benzoic acid]	18300 nM
Cn1cc(-c2nc(NCCc3cccc(F)c3)c(C(=O)NC[C@H]3CCC(=O)N3)cc2F)cn1 [N-[((2R)-5-oxopyrrolidin-2-yl)methyl](5-fluoro-2-{[2-(3-fluorophenyl)ethyl]amino}-6-(1-methylpyrazol-4-yl)(3-pyridyl))carboxamide]	27 nM
O=C(NCc1cccnc1)c1ccc(-c2ccccc2)nc1NCCc1ccc(O)cc1 [(2-{[2-(4-hydroxyphenyl)ethyl]amino}-6-phenyl(3-pyridyl))-N-(3-pyridylmethyl)carboxamide]	36700 nM
N#Cc1ccccc1-c1ccc(C(=O)N[C@@H](CCCN)C(N)=O)c(NCCc2cccc(F)c2)n1 [N-((1S)-4-amino-1-carbamoylbutyl)(6-(2-cyanophenyl)-2-{[2-(3-fluorophenyl)ethyl]amino}(3-pyridyl))carboxamide]	5400 nM
O=C(NC[C@H]1CCNC1)c1ccc(-c2ccccc2)nc1NCCc1ccccn1 [N-[((3S)pyrrolidin-3-yl)methyl]{6-phenyl-2-[(2-(2-pyridyl)ethyl)amino](3-pyridyl)}carboxamide]	62600 nM
O=C(NCc1cccnc1)c1ccc(-c2sccc2CO)nc1NCCc1cccc(F)c1 [(2-{[2-(3-fluorophenyl)ethyl]amino}-6-[3-(hydroxymethyl)(2-thienyl)](3-pyridyl))-N-(3-pyridylmethyl)carboxamide]	2240 nM
C[C@@H](CN)CNC(=O)c1cc(F)c(-c2cnn(C)c2)nc1NCCc1cccc(F)c1 [N-((2S)-3-amino-2-methylpropyl)(5-fluoro-2-{[2-(3-fluorophenyl)ethyl]amino}-6-(1-methylpyrazol-4-yl)(3-pyridyl))carboxamide]	1050 nM
